Measured values from patent US8629169B2, “4-substituted-3-phenylsulfanylmethyl-bicyclo[3.1.0]hexane compounds as mGluR 2/3 antagonists” (Eli Lilly and Company, priority 2010, dated 2014).

Key:
[1] = biological target: T1, human mGlu3 receptor (Homo sapiens, UniProt Q14832); experiment: mGlu3 receptor cAMP antagonist assay; format: cell-based; details: reversal of DCG IV (EC90) inhibition of forskolin-stimulated cAMP; relative IC50
T1 construct: expressed in transfected cells; host or cells: AV12 cells co-expressing rat EAAT1
Method: Antagonist activity is assayed in recombinant AV12 cells stably expressing human mGlu2 or mGlu3 receptors and the rat glutamate transporter EAAT1 (Excitatory Amino Acid Transporter 1). The cell lines are maintained by culturing in DMEM with high glucose and pyridoxine hydrochloride supplemented with 5% dialyzed fetal bovine serum (FBS), 1 mM sodium pyruvate, 1 mM HEPES and 1 mM L-glutamine; geneticin and hygromycin B are used as selection antibiotics.
Reversal of the inhibition of forskolin-stimulated cAMP production by test compounds is measured using homogeneous time resolved fluorescence technology (HTRF; Cisbio cat #62AM4PEB). The medium is removed and the cells are incubated with 100 μl cAMP stimulation buffer (STIM) for 30 minutes at 37° C. […] Cells are incubated at 37° C. for 20 minutes. To measure the cAMP levels, cAMP-d2 conjugate and anti cAMP-cryptate conjugate in lysis buffer are incubated with the treated cells at room temperature for 1 hour (mGlu2) or 1.5 hour (mGlu3). […] The raw data are converted to cAMP amount (pmole/well) using a cAMP standard curve generated for each experiment. Relative IC50 values are calculated from the top-bottom range of the concentration response curve using a four-parameter logistic curve fitting program (ActivityBase v5.3.1.22).

[2] = biological target: T2, human mGlu5 receptor (Homo sapiens, UniProt P41594); experiment: FLIPR calcium antagonist assay for mGlu receptor selectivity, mGlu5; format: cell-based; details: inhibition of EC90 glutamate response, read-out: mGlu5 % inhib. @12.5 μM
T2 construct: expressed in transfected cells; host or cells: AV12 cells co-expressing rat EAAT1
Excerpt: (§1) The relative antagonist potencies of the compounds of the invention for the other human mGlu receptors can be assessed with either a cAMP assay or fluorometric calcium response assay (see for example Fell et al., JPET (in press)). Briefly, individual AV12 cell lines containing the rat EAAT1 glutamate transporter and stably expressing the human mGlu1, 2, 3, 4, 5, 6, & 8 receptors are used for these studies. The mGlu1 and 5 receptors are Gq-coupled, so they naturally signal through phospholipase C, producing a calcium flux response which can be used to measure receptor activation using a Fluorometric Imaging Plate Reader (FLIPR, Molecular Devices). […]
(§2) Intracellular calcium levels are monitored using FLIPR before and after the addition of test compounds and Fluo-3 AM (Invitrogen) or Calcium 4 (Molecular Devices) dye, depending on the cell line. […] The results are analyzed using GraphPad Prism v4.03 to calculate the concentrations of glutamate needed to induce the EC90 (antagonist assay) and EC10 (potentiator assay) responses.
(§3) Compounds are tested at each mGlu receptor in a two-addition FLIPR assay using a 10-point concentration response profile starting at a final concentration of 25 μM for the agonist assay and 12.5 μM for the potentiator and antagonist assays. […] Agonist effects are quantified as percent stimulation induced by compound alone relative to the maximal glutamate response. […]

[3] = tested on: male NIH-Swiss mice; experiment: Forced-swim test in mice (mFST); format: in vivo, mouse; details: i.p.
[4] = biological target: T3, human mGlu1 receptor (Homo sapiens, UniProt Q13255); experiment: FLIPR calcium antagonist assay for mGlu receptor selectivity, mGlu1; format: cell-based; details: inhibition of EC90 glutamate response, read-out: mGlu1 % inhib. @12.5 μM
T3 construct: expressed in transfected cells; host or cells: AV12 cells co-expressing rat EAAT1
Excerpt: as §1, §2, §3

[5] = biological target: iGluR5 (Homo sapiens, UniProt P39086); experiment: Off-target activity, known assay methods, iGluR5
[6] = biological target: 5-HT2B serotonin receptor (Homo sapiens, UniProt P41595); experiment: Off-target activity, known assay methods, 5-HT2B
[7] = tested on: mGlu2+/+ and mGlu2−/− mice; experiment: mFST in mGlu2 knock-out mice and +/+ littermates; details: 10 mg/kg, i.p., 30 min prior
Method: Briefly, male NIH-Swiss mice (Harlan Sprague-Dawley, Indianapolis, Ind.) weighing between 25-30 g are used. Group housed animals are removed from the vivarium to the testing area in their own cages and allowed to adapt to the new environment for at least 1 hour before testing. […] Mice are placed in a cylinder (diameter: 10 cm; height: 25 cm) filled with 6 cm of water (22-25° C.) for 6 min. The duration of immobility during the last 4 min. of the 6 min. period of the test was scored. A mouse is recorded as immobile when floating motionless or making only those movements necessary to keep its head above water.
In other experiments, mice with receptor deletions (mGlu2 knock-out mice) are studied; these mice are bred by heterozygote×heterozygote breeding and used as littermates for −/− and +/+ mouse comparisons (Taconic Farms).

[8] = biological target: 5-HT2A serotonin receptor (Homo sapiens, UniProt P28223); experiment: Off-target activity, known assay methods, 5-HT2A
[9] = biological target: T4, human mGlu6 receptor (Homo sapiens, UniProt O15303); experiment: mGlu6 cAMP antagonist assay (reference agonist L-AP4); format: cell-based; details: cAMP format
T4 construct: expressed in transfected cells; host or cells: AV12 cells co-expressing rat EAAT1
Excerpt: as §1, with “Devices). The cell lines expressing the mGlu2, 3, 4, and 8 receptor are designed to express the Gα15 subunit so that these Gi-coupled receptors will generate a calcium flux response similar to the mGlu1 and 5 receptor expressing cell lines. The mGlu6 receptor is tested in a cAMP format using methods analogous to those developed for mGlu2 and mGlu3 above.” for “Devices).”
Antagonist activity in mGlu6 cells is measured using cAMP in a method analogous to that described above for mGlu2 and mGlu3 activity, except that the reference agonist was L-AP4 (Tocris). […] Relative IC50 and EC50 values are calculated from the top-bottom range of the concentration response curve using a four-parameter logistic curve fitting program (ActivityBase v5.3.1.22).

[10] = biological target: hERG channel (Homo sapiens, UniProt Q12809); experiment: Off-target activity, known assay methods, hERG
[11] = biological target: T5, human mGlu4 receptor (Homo sapiens, UniProt Q14833); experiment: FLIPR calcium antagonist assay for mGlu receptor selectivity, mGlu4; format: cell-based; details: inhibition of EC90 glutamate response, read-out: mGlu4 % inhib. @12.5 μM
T5 construct: expressed in transfected cells; host or cells: AV12 cells co-expressing rat EAAT1 and Galpha15
Excerpt: as §1, §2, §3

[12] = tested on: wild type, mGlu2(−/−), mGlu3(−/−) and double knockout mice; experiment: Wakefulness in mGlu2 and/or mGlu3 receptor deletion mice; format: in vivo, mouse; details: 10 mg/kg, i.p.
Excerpt: Additionally, in three separate experiments, mice with single mGlu2(−/−), single mGlu3(−/−), or double mGlu2(−/−) mGlu3(−/−) receptor deletions are studied.

[13] = biological target: T6, human mGlu8 receptor (Homo sapiens, UniProt O00222); experiment: FLIPR calcium antagonist assay for mGlu receptor selectivity, mGlu8; format: cell-based
T6 construct: expressed in transfected cells; host or cells: AV12 cells co-expressing rat EAAT1 and Galpha15
Excerpt: The relative antagonist potencies of the compounds of the invention for the other human mGlu receptors can be assessed with either a cAMP assay or fluorometric calcium response assay (see for example Fell et al., JPET (in press)). Briefly, individual AV12 cell lines containing the rat EAAT1 glutamate transporter and stably expressing the human mGlu1, 2, 3, 4, 5, 6, & 8 receptors are used for these studies. The mGlu1 and 5 receptors are Gq-coupled, so they naturally signal through phospholipase C, producing a calcium flux response which can be used to measure receptor activation using a Fluorometric Imaging Plate Reader (FLIPR, Molecular Devices). The cell lines expressing the mGlu2, 3, 4, and 8 receptor are designed to express the Gα15 subunit so that these Gi-coupled receptors will generate a calcium flux response similar to the mGlu1 and 5 receptor expressing cell lines. The mGlu6 receptor is tested in a cAMP format using methods analogous to those developed for mGlu2 and mGlu3 above. These cell lines are maintained as previously described except that amounts of L-glutamine and selection agents (geneticin, hygromycin B, zeocin, and blasticidin) may vary depending on the cell line. Confluent cultures are passaged biweekly.
Intracellular calcium levels are monitored using FLIPR before and after the addition of test compounds and Fluo-3 AM (Invitrogen) or Calcium 4 (Molecular Devices) dye, depending on the cell line. Cells are plated 24 hours prior to assay in a variable concentration of glutamine and a variable density of cells per well, depending on the cell line. The medium is removed and the cells are incubated with 8 μM of dye (50 μl per well) for 90 or 120 minutes (depending on cell line) at 25° C. […] The results are analyzed using GraphPad Prism v4.03 to calculate the concentrations of glutamate needed to induce the EC90 (antagonist assay) and EC10 (potentiator assay) responses.
Compounds are tested at each mGlu receptor in a two-addition FLIPR assay using a 10-point concentration response profile starting at a final concentration of 25 μM for the agonist assay and 12.5 μM for the potentiator and antagonist assays. […] Agonist effects are quantified as percent stimulation induced by compound alone relative to the maximal glutamate response. Antagonist effects are quantified by calculating the percent inhibition of the EC90 glutamate response caused by the compound. Potentiation effects are quantified as percent increase in the presence of an EC10 response in glutamate relative to the ECmax response. All data are calculated as relative IC50 or EC50 values using a four-parameter logistic curve fitting program (ActivityBase v5.3.1.22).

[14] = biological target: T7, M2 muscarinic receptor (Homo sapiens, UniProt P08172); experiment: Off-target activity, known assay methods, M2
T7 sequence (P08172 1-466): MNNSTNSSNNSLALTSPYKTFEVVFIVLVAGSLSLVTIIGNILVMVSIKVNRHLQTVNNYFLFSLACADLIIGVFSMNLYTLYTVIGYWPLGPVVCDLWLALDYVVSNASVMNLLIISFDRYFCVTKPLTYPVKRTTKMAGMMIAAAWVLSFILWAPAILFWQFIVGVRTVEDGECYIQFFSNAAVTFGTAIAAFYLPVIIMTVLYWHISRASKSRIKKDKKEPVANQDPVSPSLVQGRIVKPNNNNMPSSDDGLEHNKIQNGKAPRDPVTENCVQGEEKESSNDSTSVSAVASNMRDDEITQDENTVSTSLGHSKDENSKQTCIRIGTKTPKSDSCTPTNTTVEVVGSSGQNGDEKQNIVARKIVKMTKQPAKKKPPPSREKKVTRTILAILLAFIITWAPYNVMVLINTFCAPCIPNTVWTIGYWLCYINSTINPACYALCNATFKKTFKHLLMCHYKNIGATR

T6 sequence (O00222 34-908): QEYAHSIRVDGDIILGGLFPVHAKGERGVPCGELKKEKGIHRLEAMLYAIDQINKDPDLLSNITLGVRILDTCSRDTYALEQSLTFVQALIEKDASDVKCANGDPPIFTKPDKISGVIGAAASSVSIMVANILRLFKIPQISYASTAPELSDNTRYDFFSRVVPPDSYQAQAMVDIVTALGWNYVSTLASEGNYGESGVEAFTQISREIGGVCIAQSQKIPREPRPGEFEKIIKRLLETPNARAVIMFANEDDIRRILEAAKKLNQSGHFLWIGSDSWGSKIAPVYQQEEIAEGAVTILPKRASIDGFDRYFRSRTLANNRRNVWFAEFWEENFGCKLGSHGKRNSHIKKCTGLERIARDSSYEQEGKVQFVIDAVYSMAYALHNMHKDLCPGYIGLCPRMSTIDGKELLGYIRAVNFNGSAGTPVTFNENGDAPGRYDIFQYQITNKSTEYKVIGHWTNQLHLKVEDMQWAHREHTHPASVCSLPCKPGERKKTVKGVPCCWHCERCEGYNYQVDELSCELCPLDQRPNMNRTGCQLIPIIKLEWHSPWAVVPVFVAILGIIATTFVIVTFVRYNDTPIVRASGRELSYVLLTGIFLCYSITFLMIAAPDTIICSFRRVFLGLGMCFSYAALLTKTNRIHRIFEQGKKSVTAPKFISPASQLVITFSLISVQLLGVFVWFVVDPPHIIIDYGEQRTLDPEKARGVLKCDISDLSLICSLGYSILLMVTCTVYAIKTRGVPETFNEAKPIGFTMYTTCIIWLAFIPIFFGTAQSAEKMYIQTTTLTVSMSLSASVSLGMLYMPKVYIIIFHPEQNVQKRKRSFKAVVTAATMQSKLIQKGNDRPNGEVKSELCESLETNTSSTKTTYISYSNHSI
T1 sequence (Q14832 23-879): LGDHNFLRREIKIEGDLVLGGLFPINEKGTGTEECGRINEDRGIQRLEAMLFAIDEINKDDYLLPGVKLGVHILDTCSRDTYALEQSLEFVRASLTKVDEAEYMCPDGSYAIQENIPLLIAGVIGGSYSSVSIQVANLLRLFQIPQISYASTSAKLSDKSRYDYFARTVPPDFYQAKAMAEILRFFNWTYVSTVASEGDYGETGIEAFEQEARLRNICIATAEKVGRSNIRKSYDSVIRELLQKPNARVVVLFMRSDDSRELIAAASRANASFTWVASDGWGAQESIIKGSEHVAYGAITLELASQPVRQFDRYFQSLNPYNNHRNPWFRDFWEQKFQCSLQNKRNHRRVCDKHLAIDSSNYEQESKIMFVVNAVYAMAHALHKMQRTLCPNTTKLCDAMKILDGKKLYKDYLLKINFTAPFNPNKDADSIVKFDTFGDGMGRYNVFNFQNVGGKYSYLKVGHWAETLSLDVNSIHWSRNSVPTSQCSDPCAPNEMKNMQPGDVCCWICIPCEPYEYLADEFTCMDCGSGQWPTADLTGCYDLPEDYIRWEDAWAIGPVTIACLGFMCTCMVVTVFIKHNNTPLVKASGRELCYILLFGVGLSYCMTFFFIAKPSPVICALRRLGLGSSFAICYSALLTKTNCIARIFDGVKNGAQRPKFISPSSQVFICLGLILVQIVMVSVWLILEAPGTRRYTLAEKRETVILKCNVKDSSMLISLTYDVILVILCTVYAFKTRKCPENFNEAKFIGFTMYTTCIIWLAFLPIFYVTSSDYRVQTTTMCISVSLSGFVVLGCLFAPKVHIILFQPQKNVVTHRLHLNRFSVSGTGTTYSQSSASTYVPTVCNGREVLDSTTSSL
T3 sequence (Q13255 19-1194): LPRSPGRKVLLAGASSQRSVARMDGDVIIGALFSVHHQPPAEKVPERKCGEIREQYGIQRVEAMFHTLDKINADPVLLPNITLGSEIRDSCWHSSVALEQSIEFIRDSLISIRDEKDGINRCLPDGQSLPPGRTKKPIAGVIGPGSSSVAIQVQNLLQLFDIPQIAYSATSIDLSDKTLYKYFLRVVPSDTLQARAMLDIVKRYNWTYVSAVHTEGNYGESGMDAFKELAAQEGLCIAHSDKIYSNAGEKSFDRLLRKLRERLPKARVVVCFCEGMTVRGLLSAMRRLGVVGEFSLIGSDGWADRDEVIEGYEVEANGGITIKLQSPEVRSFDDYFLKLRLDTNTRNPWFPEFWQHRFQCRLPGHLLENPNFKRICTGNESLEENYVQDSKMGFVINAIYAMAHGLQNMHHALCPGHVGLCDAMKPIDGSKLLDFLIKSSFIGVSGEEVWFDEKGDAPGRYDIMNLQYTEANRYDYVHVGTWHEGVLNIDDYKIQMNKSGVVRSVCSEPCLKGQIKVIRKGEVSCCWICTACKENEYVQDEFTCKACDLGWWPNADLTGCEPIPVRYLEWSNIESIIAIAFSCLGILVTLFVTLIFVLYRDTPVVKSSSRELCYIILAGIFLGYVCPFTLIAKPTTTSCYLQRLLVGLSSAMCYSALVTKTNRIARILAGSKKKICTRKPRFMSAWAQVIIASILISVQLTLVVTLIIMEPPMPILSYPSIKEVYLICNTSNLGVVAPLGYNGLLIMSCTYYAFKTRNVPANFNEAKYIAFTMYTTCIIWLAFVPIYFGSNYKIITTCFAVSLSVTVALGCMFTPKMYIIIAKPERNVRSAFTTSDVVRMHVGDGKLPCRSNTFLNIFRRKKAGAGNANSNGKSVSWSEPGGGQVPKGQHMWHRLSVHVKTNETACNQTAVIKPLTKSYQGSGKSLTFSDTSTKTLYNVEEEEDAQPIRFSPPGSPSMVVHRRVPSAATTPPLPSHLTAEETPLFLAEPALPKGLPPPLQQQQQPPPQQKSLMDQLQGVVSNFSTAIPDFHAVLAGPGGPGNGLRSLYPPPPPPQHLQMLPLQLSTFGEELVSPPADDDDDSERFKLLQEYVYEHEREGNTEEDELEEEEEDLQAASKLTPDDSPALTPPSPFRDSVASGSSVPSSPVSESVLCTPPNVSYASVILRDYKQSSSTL
hERG channel, sequence (Q12809 whole entry): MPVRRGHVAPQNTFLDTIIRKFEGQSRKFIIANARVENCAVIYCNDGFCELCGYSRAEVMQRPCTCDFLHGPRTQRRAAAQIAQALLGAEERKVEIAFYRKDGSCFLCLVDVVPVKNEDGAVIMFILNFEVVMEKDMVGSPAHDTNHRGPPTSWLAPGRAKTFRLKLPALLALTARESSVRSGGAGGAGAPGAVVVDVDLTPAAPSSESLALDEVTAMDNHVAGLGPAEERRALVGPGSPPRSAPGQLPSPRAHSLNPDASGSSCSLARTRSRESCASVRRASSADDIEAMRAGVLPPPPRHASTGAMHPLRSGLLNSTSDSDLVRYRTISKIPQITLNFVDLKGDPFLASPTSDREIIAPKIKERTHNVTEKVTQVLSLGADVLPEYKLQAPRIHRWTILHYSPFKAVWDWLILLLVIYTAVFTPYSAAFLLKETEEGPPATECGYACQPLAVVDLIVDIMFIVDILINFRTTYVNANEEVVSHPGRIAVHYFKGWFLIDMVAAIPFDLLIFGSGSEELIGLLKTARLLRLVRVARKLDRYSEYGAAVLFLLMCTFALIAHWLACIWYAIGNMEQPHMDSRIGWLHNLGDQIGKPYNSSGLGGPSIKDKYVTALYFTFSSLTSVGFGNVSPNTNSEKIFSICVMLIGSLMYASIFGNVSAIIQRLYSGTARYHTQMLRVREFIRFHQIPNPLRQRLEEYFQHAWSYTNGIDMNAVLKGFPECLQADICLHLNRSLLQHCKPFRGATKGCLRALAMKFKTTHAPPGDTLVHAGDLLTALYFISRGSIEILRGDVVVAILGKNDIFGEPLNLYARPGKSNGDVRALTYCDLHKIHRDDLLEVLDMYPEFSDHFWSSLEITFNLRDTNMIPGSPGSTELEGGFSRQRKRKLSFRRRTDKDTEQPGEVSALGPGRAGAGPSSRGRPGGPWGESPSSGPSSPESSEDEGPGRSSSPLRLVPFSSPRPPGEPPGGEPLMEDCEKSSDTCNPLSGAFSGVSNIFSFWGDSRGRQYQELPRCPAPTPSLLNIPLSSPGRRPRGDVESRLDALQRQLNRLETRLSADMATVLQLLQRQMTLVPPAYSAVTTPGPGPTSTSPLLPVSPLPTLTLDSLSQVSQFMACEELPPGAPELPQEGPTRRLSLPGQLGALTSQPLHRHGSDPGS
T5 sequence (Q14833 33-912): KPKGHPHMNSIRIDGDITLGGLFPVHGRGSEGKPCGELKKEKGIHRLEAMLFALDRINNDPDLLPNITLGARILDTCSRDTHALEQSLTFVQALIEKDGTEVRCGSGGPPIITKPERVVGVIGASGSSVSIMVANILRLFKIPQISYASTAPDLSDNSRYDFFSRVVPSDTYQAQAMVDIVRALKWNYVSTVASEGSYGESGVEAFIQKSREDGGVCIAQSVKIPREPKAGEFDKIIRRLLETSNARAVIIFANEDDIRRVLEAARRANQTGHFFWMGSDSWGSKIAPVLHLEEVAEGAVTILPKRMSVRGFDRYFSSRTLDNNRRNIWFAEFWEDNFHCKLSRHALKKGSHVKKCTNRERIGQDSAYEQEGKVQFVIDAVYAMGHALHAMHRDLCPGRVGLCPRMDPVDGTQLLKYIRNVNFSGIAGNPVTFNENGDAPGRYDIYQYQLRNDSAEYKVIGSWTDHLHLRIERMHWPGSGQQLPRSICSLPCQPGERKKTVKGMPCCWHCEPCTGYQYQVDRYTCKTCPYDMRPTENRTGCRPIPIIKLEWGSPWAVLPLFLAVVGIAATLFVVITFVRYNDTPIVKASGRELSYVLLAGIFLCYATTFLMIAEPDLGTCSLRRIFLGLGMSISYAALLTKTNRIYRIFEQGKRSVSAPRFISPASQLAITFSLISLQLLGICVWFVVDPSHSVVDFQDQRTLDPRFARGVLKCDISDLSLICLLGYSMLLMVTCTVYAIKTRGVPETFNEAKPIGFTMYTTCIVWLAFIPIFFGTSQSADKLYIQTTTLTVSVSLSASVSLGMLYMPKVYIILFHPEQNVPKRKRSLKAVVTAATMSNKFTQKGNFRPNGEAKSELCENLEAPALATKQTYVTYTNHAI

Cl.N[C@]1(C(=O)O)[C@@H]2[C@@H](C(=O)O)[C@@H]2[C@H](O)[C@H]1CSc1ccc(F)c(F)c1 [Example 1, (1S,2R,3S,4S,5R,6R)-2-Amino-3-{[(3,4-difluorophenyl)sulfanyl]methyl}-4-hydroxybicyclo[3.1.0]hexane-2,6-dicarboxylic acid hydrochloride]
IC50 [1]: 6.2 ± 2.2 nM
inhibition at 12.5 µM [2]: -2%
ED60 (mg/kg) ([3]; immobility, last 4 min of 6 min): 8.0 (i.p.) mg/kg
Maximal Decrease (1 − compound/control) * 100% ([3]; immobilization time): 36.1%
inhibition at 12.5 µM [4]: 6.3%
activity at iGluR5 [5]: no appreciable activity
activity at serotonin receptor 5-HT2B [6]: no appreciable activity
immobility time in mGlu2+/+ mice [7]: significantly decrease immobility time
activity at serotonin receptor 5-HT2A [8]: no appreciable activity
IC50 [9]: 1720 nM
activity at the hERG channel [10]: no appreciable activity
inhibition at 12.5 µM [11]: 17.9%
wakefulness in double knockout mGlu2(−/−) mGlu3(−/−) mice ([12]; double knockout): not significantly increase wakefulness
wakefulness in single knockout mGlu2(−/−) mice ([12]; mGlu2(−/−), though at a reduced level): significantly increase wakefulness
wakefulness in single knockout mGlu3(−/−) mice ([12]; mGlu3(−/−), though at a reduced level): significantly increase wakefulness
wakefulness in wild type mice ([12]; wild type): significantly increase wakefulness
inhibition at 12.5 µM ([13]; 12.5 μM, inhibition of EC90 glutamate response, read-out: mGlu8 % inhib. @12.5 μM): 47%
IC50 ([13]; FLIPR antagonist, in brackets under % inhib.): 4970 nM
activity at muscarinic receptor M2 [14]: no appreciable activity
